According to patent US9988378B2, “1 H-pyrazole and 4,5-disubstituted thiazole inhibitors of SYK” (Hoffmann-La Roche Inc., priority 2012, dated 2018):

Legend:
human whole blood = test: IC50: human whole blood; type: cell-based
[1] = target: T1, recombinant human SYK360-635 (Homo sapiens, UniProt P43405); test: SYK kinase assay, 33P ATP filtration (ENZYME_FILTRATION_IC50); type: biochemical; conditions: SYK aa 360-635 0.5 nM, ATP 20 μM, peptide 5 μM, 30° C. 15 min
T1 construct: truncated construct of Spleen Tyrosine Kinase aa 360-635; made in house
Description: Determination of IC50 of Spleen Tyrosine Kinase (SYK) Inhibition:
SYK kinase assay is a standard kinase assay adapted to a 96 well plate format. This assay is performed in 96-well format for IC50 determination with […] which represented 10 half log dilutions and a 40 μL reaction volume. The assay measures the incorporation of radiolabeled ^33P ATP into an N-terminally biotinylated peptide substrate, derived from naturally occurring phosphoacceptor consensus sequence (Biotin-11aa DY*E). Phosphorylated products were detected upon termination of reactions with EDTA and the addition of Streptavidin coated beads. Representative results are in Table II above.
Assay plates: 96-well MultiScreen 0.65 um filter plates (Millipore Cat. No.: MADVNOB10) Streptavidin coated beads: Streptavidin Sepharose™, suspension 5.0 mL, in 50 mM EDTA/PBS diluted (1:100), (Amersham, Cat. No.: 17-5113-01)
Compounds: 10 mM in 100% dimethylsulfoxide (DMSO), final conc.: compound 0.003-100 uM in 10% DMSO
Enzyme: SYK RPA purified, truncated construct of Spleen Tyrosine Kinase aa 360-635, stock solution 1 mg/mL, MW: 31.2 KDa, final conc.:0.0005 μM.
Peptide 1: biotinylated peptide is derived from a naturally occurring phosphor-acceptor consensus sequence (Biotin-EPEGDYEEVLE), special order from QCB, stock solution 20 mM, final conc.: 5.0 μM.
ATP: Adenosine-5′-triphosphate 20 mM, (ROCHE Cat. No.: 93202720), final concentration: 20 μM
Buffer: HEPES: 2-Hydroxyethyl piperazine-2-ethanesulfonic acid (Sigma, Cat. No.: H-3375) final concentration: 50 mM HEPES pH7.5
BSA: Bovine Serum Albumin Fraction V, fatty acid free (Roche Diagnostics GmbH, Cat. No. 9100221) diluted to a final concentration of 0.1%
EDTA: EDTA stock solution 500 mM, (GIBCO, Cat. No.: 15575-038) final concentration: 0.1 mM
DTT: 1,4-Dithiothreitol (Roche Diagnostics GmbH, Cat. No.: 197777), final conc.: 1 mM MgCl2×6H2O: MERCK, Cat. No.: 105833.1000, final concentration: 10 mM
Assay Dilution Buffer (ADB): 50 mM HEPES, 0.1 mM EGTA, 0.1 mM Na Vanadate, 0.1 mM β-glycerophosphate, 10 mM MgCl2, 1 mM DTT, 0.1% BSA, pH 7.5
Bead wash buffer: 10 g/L PBS (Phosphate buffered saline) with 2M NaCl+1% phosphoric acid.
In 40 μL volume, 26 μL of ADB diluted, purified recombinant human SYK360-635 [0.5 nM] was mixed with 4 μL of 10× concentrations of the test compounds, [usually 100 μM-0.003 μM] in [10%] DMSO and the mixture was incubated for 10 min at RT.
The kinase reaction was initiated by the addition of 10 μL 4× substrate cocktail containing the DYE peptide substrate [0 or 5 μM], ATP [20 μM] and ^33PγATP [2 μCi/rxn]. After incubation at 30° C. for 15 min, the reaction was terminated by the transfer of 25 μL pf the reaction sample to a 96 well 0.65 μm Millipore MADVNOB membrane/plate containing 200 μL 5 mM EDTA and 20% Streptavidine coated beads in PBS.
The unbound radionucleotides were washed under vacuum with 3×250 μL 2M NaCl; 2×250 μL 2M NaCl+1% phosphoric acid; 1×250 μL H2O. After the last wash membrane/plates were transferred to an adaptor plate, heat dried for 15 min at 60° C., and 50 μL scintillation cocktail was added to each well and 4 h later the amount of radioactivity was counted in a top counter.
The percent inhibition was calculated based on the uninhibited enzyme rate: % Inhibition=100/(1+(IC50/Inhibitor conc)^n)
The IC50 was calculated using a non-linear curve fit with XLfit software (ID Business Solution Ltd., Guilford, Surrey, UK).

RAMOS = test: RAMOS_V2_IC50; type: cell-based; conditions: Homo sapiens

SMILES | IC50 (human whole blood) | IC50 [1] | IC50 (RAMOS)
CCC(C)(C)Nc1scnc1-c1nc2cc(C)ccc2[nH]1 [Compound I-42, 4-(5-methyl-1H-benzo[d]imidazol-2-yl)-N-tert-pentylthiazol-5-amine] | > 50 µM | 1.62 µM | –
CCOC(=O)c1c[nH]nc1-c1nc2c(s1)CCCC2 [Compound I-14, ethyl 3-(4,5,6,7-tetrahydrobenzo[d]thiazol-2-yl)-1H-pyrazole-4-carboxylate] | – | > 10 µM | > 34.1 µM
O=C(Nc1c[nH]nc1-c1nc2ccccc2s1)C1CC1 [Compound I-6, Cyclopropanecarboxylic acid (3-benzothiazol-2-yl-1H-pyrazol-4-yl)-amide] | – | 2.76 µM | 12 µM
c1ccc(-c2ncc(-c3cc[nH]n3)s2)cc1 [Compound I-1, 2-Phenyl-5-(1H-pyrazol-3-yl)-thiazole] | – | 35.2 µM | –
CC(C)(CO)C(=O)Nc1c[nH]nc1-c1nc2ccccc2s1 [Compound I-28, N-(3-Benzothiazol-2-yl-1H-pyrazol-4-yl)-3-hydroxy-2,2-dimethyl-propionamide] | – | 1.13 µM | 6.41 µM
CC(C)(C)NC(=O)c1c[nH]nc1-c1nc2c(s1)CCCC2 [Compound I-19, N-tert-butyl-3-(4,5,6,7-tetrahydrobenzo[d]thiazol-2-yl)-1H-pyrazole-4-carboxamide] | > 50 µM | – | > 34.1 µM
CC(C)(C)NC(=O)c1c[nH]nc1-c1nc2c(s1)CCC2 [Compound I-18, N-tert-butyl-3-(5,6-dihydro-4H-cyclopenta[d]thiazol-2-yl)-1H-pyrazole-4-carboxamide] | > 50 µM | 6.12 µM | > 34.1 µM
CN1CCC(NC(=O)c2c[nH]nc2-c2nc3c(s2)CCCC3)CC1 [Compound I-24, N-(1-methylpiperidin-4-yl)-3-(4,5,6,7-tetrahydrobenzo[d]thiazol-2-yl)-1H-pyrazole-4-carboxamide] | > 50 µM | – | –
CC(C)C(=O)Nc1c[nH]nc1-c1nc2ccccc2s1 [Compound I-3, N-(3-Benzothiazol-2-yl-1H-pyrazol-4-yl)-isobutyramide] | – | 2.08 µM | 5.41 µM
CCOC(=O)c1c[nH]nc1-c1nc2ccccn2n1 [Compound I-2, 3-[1,2,4]Triazolo[1,5-a]pyridin-2-yl-1H-pyrazole-4-carboxylic acid ethyl ester] | – | 0.113 µM | > 34.1 µM
O=C(NC1CCOCC1)c1c[nH]nc1-c1nc2c(s1)CCC2 [Compound I-22, 3-(5,6-dihydro-4H-cyclopenta[d]thiazol-2-yl)-N-(tetrahydro-2H-pyran-4-yl)-1H-pyrazole-4-carboxamide] | – | 1.99 µM | > 34.1 µM
O=C(NC1CCOCC1)c1c[nH]nc1-c1nc2c(s1)CCCC2 [Compound I-23, N-(tetrahydro-2H-pyran-4-yl)-3-(4,5,6,7-tetrahydrobenzo[d]thiazol-2-yl)-1H-pyrazole-4-carboxamide] | – | 7.87 µM | > 34.1 µM
Cc1ccc2[nH]c(-c3ncsc3NCC(C)C)nc2c1 [Compound I-44, N-isobutyl-4-(5-methyl-1H-benzo[d]imidazol-2-yl)thiazol-5-amine] | – | 0.621 µM | 7.98 µM
Cc1cccc2[nH]c(-c3ncsc3Nc3cccnc3)nc12 [Compound I-40, 4-(4-methyl-1H-benzo[d]imidazol-2-yl)-N-(pyridin-3-yl)thiazol-5-amine] | – | 0.487 µM | 0.764 µM
CC(C)(C)C(=O)Nc1c[nH]nc1-c1nc2ccccc2s1 [Compound I-4, N-(3-Benzothiazol-2-yl-1H-pyrazol-4-yl)-2,2-dimethyl-propionamide] | – | 0.621 µM | 3.83 µM
O=C(NC1CCCC1)c1c[nH]nc1-c1nc(-c2ccccc2)cs1 [Compound I-20, N-cyclopentyl-3-(4-phenylthiazol-2-yl)-1H-pyrazole-4-carboxamide] | > 50 µM | 0.215 µM | –
Cc1ccc2sc(-c3n[nH]cc3C(=O)NC(C)(C)CO)cc2c1 [Compound I-9, N-(1-hydroxy-2-methylpropan-2-yl)-3-(5-methylbenzo[b]thiophen-2-yl)-1H-pyrazole-4-carboxamide] | > 50 µM | > 10 µM | –
CC(C)(C)NC(=O)c1c[nH]nc1-c1nc2ccccc2[nH]1 [Compound I-37, 3-(1H-Benzoimidazol-2-yl)-1H-pyrazole-4-carboxylic acid tert-butylamide] | 2.86 µM | – | 0.14 µM
O=C(Nc1c[nH]nc1-c1nc2ccccc2s1)C1CCC1 [Compound I-26, Cyclobutanecarboxylic acid (3-benzothiazol-2-yl-1H-pyrazol-4-yl)-amide] | – | 1.23 µM | –
CCOC(=O)c1c[nH]nc1-c1nc2c(s1)CCC2 [Compound I-15, ethyl 3-(5,6-dihydro-4H-cyclopenta[d]thiazol-2-yl)-1H-pyrazole-4-carboxylate] | – | > 10 µM | > 34.1 µM
Cc1ccc2sc(-c3n[nH]cc3C(=O)NC(C)(C)C)cc2c1 [Compound I-10, N-tert-butyl-3-(5-methylbenzo[b]thiophen-2-yl)-1H-pyrazole-4-carboxamide] | > 50 µM | > 10 µM | –
CC(=O)OCC(C)(C)C(=O)Nc1c[nH]nc1-c1nc2ccccc2s1 [Compound I-27, Acetic acid 2-(3-benzothiazol-2-yl-1H-pyrazol-4-ylcarbamoyl)-2-methyl-propyl ester] | – | 4.64 µM | 15.5 µM
O=C(Nc1c[nH]nc1-c1nc2ccccc2s1)C1CCOCC1 [Compound I-25, Tetrahydro-pyran-4-carboxylic acid (3-benzothiazol-2-yl-1H-pyrazol-4-yl)-amide] | – | 4.61 µM | 5.21 µM
O=C(Nc1c[nH]nc1-c1nc2ccccc2s1)C1CCCC1 [Compound I-5, Cyclopenanecarboxylic acid (3-benzothiazol-2-yl-1H-pyrazol-4-yl)-amide] | – | 1.28 µM | 4.65 µM
c1cncc(Nc2scnc2-c2nc3cnccc3[nH]2)c1 [Compound I-41] | – | 5.44 µM | > 31.2 µM
COc1cccc(-c2n[nH]cc2C(=O)NC(C)(C)C)n1 [Compound I-11, N-tert-butyl-3-(6-methoxypyridin-2-yl)-1H-pyrazole-4-carboxamide] | – | 7.95 µM | > 34.1 µM
O=C(NC1CCOCC1)c1c[nH]nc1-c1nc2ccccc2[nH]1 [Compound I-38, 3-(1H-Benzoimidazol-2-yl)-1H-pyrazole-4-carboxylic acid (tetrahydro-pyran-4-yl)-amide] | 0.87 µM | – | 0.483 µM
CC(C)NC(=O)c1c[nH]nc1-c1nc2ccccc2[nH]1 [Compound I-36, 3-(1H-Benzoimidazol-2-yl)-1H-pyrazole-4-carboxylic acid isopropylamide] | 2.54 µM | – | 0.292 µM
CC(C)(CO)NC(=O)c1c[nH]nc1-c1nc2ccccc2[nH]1 [Compound I-39, 3-(1H-Benzoimidazol-2-yl)-1H-pyrazole-4-carboxylic acid (2-hydroxy-1,1-dimethyl-ethyl)-amide] | 2.87 µM | – | 0.986 µM
Cc1ccc2[nH]c(-c3ncsc3NC3CCCC3)nc2c1 [Compound I-43, N-cyclopentyl-4-(5-methyl-1H-benzo[d]imidazol-2-yl)thiazol-5-amine] | – | 0.699 µM | > 34.1 µM
